Data taken from US20080118437A1, “Diagnosis and treatment O prostate cancer” (Regents of the University of Michigan, priority 2006, published 2008).

Assays:
PC-3 cells [1] = assay: Fluorescence-based migration assay toward hrMCP-1; format: cell-based, human; settings: for PC-3 cell migration, mean fluoresence±SD: 24 hours
Method: (§1) Flouresence-based Migration Assay—Cell migration was assessed using the Innocyte Cell Migration Assay (Calbiochem, Inc.) following the manufacturer's instructions. Briefly, increasing concentrations of MCP-1 (1-100 ng/mL) in the presence and absence of CCR2 inhibitors or neutralizing antibodies were added to the lower chamber of a 96 well plate. Cells were harvested by 0.5 μM EDTA release and resuspended at 2.5×10^5 cells/mL in serum free media. 2.5×10^4 cells were added to the upper chamber and allowed to migrate through the membrane with 8 μm pores for 24 hours at 37° C. and 5% CO2 atmosphere. Cells that migrated through the membrane were detached and labeled with Calcein AM and fluorescence was measured using fluorescent plate reader with excitation wavelength of 485 nm and emission wavelength of 520 nm. The experiments were repeated twice and each conditioned was performed in quadruplicate in each experiment.

VCaP cells [2] = assay: Fluorescence-based migration assay toward hrMCP-1; format: cell-based, human; settings: for VCaP cell migration, mean fluoresence±SD: 24 hours
Method: as §1

PC-3 cells [3] = assay: Immunofluorescence of actin rearrangement and lamellipodial formation; format: cell-based, human
Method: Immunofluorescence-PC-3 cells were plated on glass coverslips and serum starved for 2 hours prior to stimulation. Cells were stimulated with MCP-1 (100 ng/mL) for 30 min in the presence or absence of identified inhibitors. Stimulation with SDF-1 (200 ng/mL) for 30 min was used as a positive control. Cells were fixed in 3.7% paraformaldehyde, methanol-free for 10 min at room temperature then permeablized with 0.5% Triton X-100 for 5 min at room temperature. Cells were rinsed twice with PBS and incubated for 30 minutes at room temperature with 3% bovine serum albumin (BSA) in PBS+0.05% Tween 20 to prepare cells for staining. Cells were incubated with Phalloidin AlexaFluor S68 (Molecular Probes, Inc.) at a 1:40 dilution in BSA solution to label actin. Cells were washed and mounted on coverslips with Pro-Long Antifade containing DAPI (Molecular Probes, Inc.) following manufacturer's instructions. Immunofluoresence was visualized using a multi-photon laser scanning microscope (MPLSM), consisting of a Mai Tai Broadband Ti:Sapphire laser, tuneable between 710-990 nm and a modified Olympus Fluoview 300 confocal microscope with long working distance water immersion IR objectives. Images were captured with a 60× objective (zoom ×2), 800 nm excitation wavelength, 605 nm and 520 nm centered emmission filters.

PC-3Luc cells [4] = assay: Bioluminescent in vivo model of metastasis (Example 4, antibodies and/or docetaxel); design: species or system male SCID mice
Method: Bioluminescent imaging of PC-3Luc was preformed as previously described through The University of Michigan Small Animal Imaging Resource facility (MSAIR) (Loberg et al., 2006. Neoplasia. 8:578-586). Briefly, PC-3Luc cells were introduced into male SCID mice (5-6 wks of age) by intracardiac injections. Mice were serially imaged weekly for up to 12 weeks using a CCD IVIS system using a 50 mm lens (Xenogen Corp, Alameda, Calif.) and the results were analyzed using LIVING IMAGE software (Xenogen Corp.). Mice were separated into groups and treatment began at week 2 post-intracardiac injection and mice received 2 mg/Kg antibody twice weekly by intraperitoneal (i.p.) injection (for up to eight weeks) and/or 40 mg/Kg Taxotere i.p. injection once per week for three weeks. Mice were injected with luciferin (40 mg/mL) intraperitoneally and ventral images were acquired 15 min postinjection under 1.75% isofluorane/air anesthesia. Total tumor burden of each animal was calculated using regions of interest (ROIs) that encompassed the entire animal. Animals were sacrificed after week 6 image and individual organs were harvested and immediately placed in formalin.

[5] = tested on: HBME, HAEC and HDVMEC cells; assay: CCL2 synthesis by endothelial cells stimulated with PTHrP; format: cell-based, human; settings: PTHrP 10 nM
Method: To determine the role of CCL2 in the development of prostate cancer-bone metastasis the level of CCL2 was analyzed by ELISA. […]

[6] = tested on: MC3T3-E1 subclone 4 (MC-4) OB cells; assay: CCL2 ELISA of osteoblast cells stimulated with PTHrP; format: cell-based, mouse; settings: PTHrP 10 nM; day 7 and day 14 after induced differentiation
Method: VCaP cells were obtained from a lumbar vertebral metastatic lesion through the Rapid Autopsy program at the University of Michigan (Korenchuk et al., 2001; 2: 163-168; Loberg et al., Urol. One. 2006; 24:161-168). Cells were cultured in Dulbecco's Modified Eagle Medium supplemented with 10% Fetal Bovine Serum and 1% antibiotic/antimicotic and incubated at 37° C. PC3 prostate cancer cells were obtained from the American Type Culture Collection (Manassas, Va.). Cells were cultured in RPMI-1640 with L-Glutamine (Cambrex Bioproducts) and supplemented with 10% Fetal Bovine Serum and 1% antibiotic/antimicotic. Cells were incubated at 37° C. and subcultured according to ATCC specifications. MC3T3-E1 subclone 4 cells (MC-4) with high osteoblast differentiation potential were maintained and passaged every 4-5 days as previously described. Briefly, cells were grown in AMEM (Gibco) containing 100 units/ml penicillin and streptomycin and 10% FBS. MC3T3 cells were plated at 40,000-50,000 cells/cm2, and differentiation was induced with the addition of ascorbic acid (50 μg/ml) for 7 days. The culture medium was changed at days 1, 3, 5, and 7. […]
A mouse CCL2 specific ELISA kit was purchased from BD Biosciences (San Diego, Calif.) to measure the protein level of CCL2 in cell culture media. […] Values were calculated from standard curves set up for each assay. […]

[7] = tested on: primary mouse calvaria osteoblasts; assay: CCL2 ELISA of primary osteoblasts stimulated with PTHrP; format: cell-based; settings: maximal response at 2 hours post-stimulation
Method: Primary mouse calvarial cells were isolated as previously described. Briefly, calvaria of newborn mice at day 4 were dissected, isolated, and subjected to sequential digestions in collagenase A (2 mg/ml) and 0.25% trypsin for 20, 40, and 90 minutes. Cells from the third digest were washed, counted, and plated in αMEM with 10% FBS containing 100 U/ml of penicillin and streptomycin. Primary cultures were used without passage. For differentiation, both MC-4 and primary cells were induced to differentiate and form mineralized matrix with the addition of ascorbic acid (50 μg/ml) and β-glycerophosphate (10 mM) with media replacement (every 2 days). In proliferation phase, MC-4 cells were serum staved for 24 h before addition of PTHrP or vehicle for indicated time. Otherwise, cells were treated with PTHrP or vehicle for indicated time without serum starvation.
A mouse CCL2 specific ELISA kit was purchased from BD Biosciences (San Diego, Calif.) to measure the protein level of CCL2 in cell culture media. Assays were performed as recommended by the manufacturer to determine levels of secreted CCL2 in MC-4 or primary cell culture media. Values were calculated from standard curves set up for each assay. The data are based on a triplicate experiments performed independently. Data are shown as mean +SEM in the figures.

[8] = in vivo; cited from earlier work
PC-3 cells [9] = assay: WST-1 proliferation assay with MCP-1 with or without LY294002; format: cell-based, human; settings: increasing concentrations, 24-96 hours
Method: (§2) Proliferation Assay-Cells were seeded at a density of 4×10^3 cells/well in a six well plate in regular media. Twenty four hours after seeding the media was changed with serum free media with increasing concentrations of MCP-1(1-100 ng/mL) in the presence of absence of LY294002 (1 μM). Cell growth was determined at 24, 48, 72, and 96 hours after seeding using the WST-1 assay (Pierce Biotech) following the manufacturer's instructions.

VCaP cells [10] = assay: as above; format: cell-based, human; settings: increasing concentrations, 24-96 hours
Method: as §2

LNCaP cells = assay: WST-1 proliferation assay with MCP-1; format: cell-based, human; settings: compared to vehicle treated controls
Method: as §2

PC-3 cells [11] = assay: Western blot of MCP-1 induced signaling; format: cell-based, human; settings: MCP-1 100 ng/mL
Method: (§3) Western Blot-Cells were lysed in RIPA buffer (50 mM Tris-HCl, pH 7.4, 1% NP-40, 150 mM NaCl, 1 mM EDTA, 1 mM PMSF, 1 mM Na3VO4, 1 mM NaF, 1 uM okadaic acid and 1 ug/mL aprotinin, leupeptin and pepstatin). Proteins were separated under reducing conditions by SDS-PAGE and transferred onto nitrocellulose membrane. The membranes were blocked with 5% milk in TBST (0.1% Tween in TBS) for 1 hour at room temperature. They were incubated overnight at 4° C. with primary antibodies. Membranes were washed 3 times prior to incubation with HRP-conjugated secondary antibodies (Cell Signaling, Beverly, Mass.) for 1 hour at room temperature. Protein expression was visualized by ECL chemiluminescent (Promega, Madison, Wis.) and quantitated using Image J software (NCl, Bethesda, Md.).

VCaP cells [12] = assay: Western blot of MCP-1 induced signaling; format: cell-based, human; settings: MCP-1 100 ng/mL, time dependent, maximal at 30 min; dose-dependent 0.1-100 ng/mL
Method: as §3

PC-3Luc cells [13] = assay: WST-1 proliferation assay with hrCCL2 and anti-CCL2 antibodies; format: cell-based, human; settings: 72 hours, antibodies 30 μg/mL
Method: Cells were seeded at a density of 1×10^5 cells/ml for PC-3Luc cells in a 96 well plate in RPMI+10% FBS (FCS is mentioned in previous section). Twenty-four hours after seeding, media was changed to either serum-free RPMI or RPMI+10% FBS. Cell growth was determined 72 hours later using the WST-1 assay (Pierce Biotech, Inc.) following the manufacturer's instructions.

O=C1Nc2ccccc2C2(CCN(CCc3ccc(C(F)(F)F)cc3)CC2)O1 [RS-102895]
effect on MCP-1 induced dose dependent migration of PC-3 cells (PC-3 cells [1]; MCP-1 1-100 ng/mL): attenuated
effect on MCP-1 induced dose dependent migration of VCaP cells (VCaP cells [2]; MCP-1 1-100 ng/mL): attenuated
effect on MCP-1 induced actin rearrangement and lamellipodial formation (PC-3 cells [3]; co-incubation with MCP-1 100 ng/mL, RS-102895 1 μM): did not prevent actin rearrangement and lamellipodial formation

CC(=O)O[C@@]12CO[C@@H]1C[C@H](O)[C@@]1(C)C(=O)[C@H](O)C3=C(C)[C@@H](OC(=O)[C@H](O)[C@@H](NC(=O)OC(C)(C)C)c4ccccc4)C[C@@](O)([C@@H](OC(=O)c4ccccc4)[C@H]21)C3(C)C [docetaxel, (2R,3S)-N-carboxy-3-phenylisoserine, N-tert-butyl ester, 13-ester with 5b-20-epoxy-12a,4,7b,10b,13a-hexahydroxytax-11-en-9-one 4-acetate 2-benzoate, trihydrate]
animals of group counted at Wk 6 (tumor regression, Table 2) (PC-3Luc cells [4]; Wk 6 = First week after cessation of Taxotere): 2 of 9
animals of group counted at Wk 9 (tumor regression, Table 2) (PC-3Luc cells [4]; Wk 9 = First week after cessation of Antibodies): 1 of 9
total tumor burden at Day 35 (PC-3Luc cells [4]; antibodies 2 mg/Kg i.p. twice weekly, docetaxel 40 mg/Kg i.p.): 3.19 % of PBS-treated animals
tumor burden during and after therapy (docetaxel, combination, antibody maintenance) (PC-3Luc cells [4]; docetaxel 40 mg/Kg i.p. qw for 3 weeks, antibodies 2 mg/Kg i.p. twice weekly until week 8): decrease in tumor burden while receiving therapy

PTHrP: Human Parathyroid hormone related protein (PTHrP)-(1-34) from Bachem
synthesis of CCL2 [5]: increased their respective synthesis of CCL2
CCL2 expression [6]: rapidly increased within 2 hours
CCL2 expression [7]: increased CCL2 expression

VEGF TRAPR1R2: VEGF TRAP Fc fusion protein (Holash et al.)
AUC [8]: 36.28 µg·days/mL
Cmax [8]: 16000 ng/mL

hrMCP-1: Human recombinant MCP-1 (CC chemokine ligand 2) from Chemicon International
PC-3 cell migration, mean fluoresence±SD (PC-3 cells [1]; hrMCP-1 1 ng/mL): 83.53±2.981
PC-3 cell migration, mean fluoresence±SD (PC-3 cells [1]; hrMCP-1 10 ng/mL): 142.2±2.678
PC-3 cell migration, mean fluoresence±SD (PC-3 cells [1]; hrMCP-1 100 ng/mL): 248.1±0.761
VCaP cell migration, mean fluoresence±SD (VCaP cells [2]; hrMCP-1 1 ng/mL): 130.6±2.145
VCaP cell migration, mean fluoresence±SD (VCaP cells [2]; hrMCP-1 10 ng/mL): 176.1±9.051
VCaP cell migration, mean fluoresence±SD (VCaP cells [2]; hrMCP-1 100 ng/mL): 296.5±2.681
proliferation in response to MCP-1 (PC-3 cells [9]): enhanced proliferation
proliferation in response to MCP-1 (VCaP cells [10]): enhanced proliferation
proliferation in response to MCP-1 (LNCaP cells): no effect
GSK3α/β phosphorylation (PC-3 cells [11]): no effect
p70 S6 kinase phosphorylation (PC-3 cells [11]): induced p70 S6 kinase phosphorylation
Akt phosphorylation by immunoblot (PC-3 cells [11]; time dependent, maximal at 30 min, dose-dependent 0.1-100 ng/mL): induced Akt phosphorylation
Akt phosphorylation by immunoblot (VCaP cells [12]): induced Akt phosphorylation
actin cytoskeleton: finger-like projections and lamellipodia (PC-3 cells [3]; MCP-1 100 ng/mL, 30 min, compared to control cells): increased formation
cell viability (WST-1) as a measure of proliferation, mean ±SD (PC-3Luc cells [13]; CCL2 10 ng/mL): 136.2±7.81
cell viability (WST-1) as a measure of proliferation, mean ±SD (PC-3Luc cells [13]; CCL2 100 ng/mL): 168.15±5.44
